Measured values published in patent US8524654B2, “Prolyl endopeptidase inhibitors for reducing or preventing neutrophilic inflammation” (The UAB Research Foundation, priority 2007, dated 2013).
“Also recorded” adds a separate entry of the source. Residues, ends and D or L forms follow the SMILES beside them. *: point of attachment. Cbz = O=C(OCc1ccccc1)*

How the values were obtained:
[1] = test system: PGP production by CF sputum on type I collagen; test: Ex vivo collagen assay: PGP generation by pooled CF sputum with inhibitors; assay type: biochemical, human
Description: (§1) Electrospray ionization liquid chromatography-MS/MS. (ESI-LC/MS/MS) for PGP detection PGP and N-α-PGP were measured for in vitro and sputum samples using a MDS Sciex (Applied Biosystems, Foster City, Calif.) API-4000 spectrometer equipped with a Shimadzu HPLC. HPLC was done using a 2.1×150-mm Develosi C30 column (with buffer A: 0.1% formic acid, and buffer B: acetonitrile plus 0.1% formic acid); at 0-0.6 min, 80% buffer A/20% buffer B and at 0.6-5 min, the gradient is up to 0% buffer A/100% buffer B. Background was removed by flushing with 100% isopropanol plus 0.1% formic acid. Positive electrospray mass transitions were at 270-70 and 270-116 for PGP and 312-140 and 312-112 for N-α-PGP.
Ex vivo collagen assay. One hundred microliters of saline-diluted sputum was incubated with extensively dialyzed, intact type I or II collagen (50 μl, 1 mg/ml) for 24 h at 37° C. and 5% CO2. The samples were filtered through a 10-kDa filter, washed with 20 μl of 1 N HCl, and analyzed using ESI-LC-MS/MS for levels of PGP and N-αPGP. Amounts of PGP and N-α-PGP generated by each sputum sample were determined by subtracting basal levels already present in each sample.
For the inhibitor experiments, these pooled sputa were treated with noted inhibitor and allowed to incubate for 6 h. At 6 h, dialyzed collagen was added to the sample and sample was further incubated for 18 h. Inhibitor concentrations used were: MMP-8, -9, and -2 at 50 μM, PE at 100 μM, and doxycycline at 1 mM.

[2] = test system: neutrophil; settings: in vitro; cited from earlier work
[3] = test system: PGP production in murine airways; test: In vivo murine intratracheal protease administration, PGP in bronchoalveolar lavage fluid; parameters: species or system BALB/c mice; settings: 50 μl, lavage 24 h later, ESI LC-MS/MS, vs PBS control
Description: In vivo PGP production was examined using MMPs or human neutrophil elastase (HNE) with or without PE. Various proteases (50 μl) were administered intratracheally into murine (4- to 6-wk-old BALB/c mice) airways and bronchoalveolar lavage fluid was collected 24 h later. PGP levels were determined using ESI LC-MS/MS. […] Number of mice per group=6.
as §1
In vivo murine administration. Mice underwent intratracheal protease administration as described in FIG. 5 legend. MMPs were preactivated using 1 mM aminophenylmercuric acetate for 2 hours at 37° C. The concentrations of proteases administered were: MMP-8, MMP-9, and MMP-12: 55.6 μg/kg; HNE: 200 μg/kg; and PE: 18.4 mg/kg. […]

Molecule: O=CC1CCCN1C(=O)C1CCCN1C(=O)OCc1ccccc1 (stereo not drawn) [PE inhibitor, Z-prolyl prolinal] (Cbz-Pro-Pro-aldehyde; configuration not given here)
- inhibition of PGP production compared with CF sputum alone ([1]; PE inhibitor at 100 μM, 6 h with pooled CF sputum, then type I collagen, 100 µM): completely blocked; also recorded: complete blockade

Molecule: proline-glycine-proline [PGP]
- potency as neutrophil chemoattractant relative to N-α-PGP [2]: four to seven times less potent

Molecule: CCCCCCCC/C=C\CCCCCCCC(=O)NO [MMP-2-specific inhibitor, cis-9-octadecenoyl-N-hydroxylamide]
- inhibition of PGP production compared with CF sputum alone ([1]; MMP-8, -9, -2 inhibitors at 50 μM, 6 h with pooled CF sputum, then type I collagen, 50 µM): minimal effects; also recorded: Neither MMP-2-nor HNE-specific inhibitors resulted in significant changes

Molecule: CC(C)(C)C(=O)Oc1ccc(S(=O)(=O)Nc2ccccc2C(=O)NCC(=O)O)cc1 [HNE-specific inhibitor, N-(2-(4-(2,2-dimethylpropionyloxy)phenylsulfonylamino)benzoyl)aminoacetic acid N-(o-(p-pivaloyloxybenzene)sulfonylaminobenzoyl) glycine]
- inhibition of PGP production compared with CF sputum alone ([1]; HNE inhibitor, concentration not given, pooled CF sputum, type I collagen): minimal effects; also recorded: Neither MMP-2-nor HNE-specific inhibitors resulted in significant changes

B1: HNE: Recombinant human neutrophil elastase (protein, UniProt P08246 30-267, looked up)
Neutrophil elastase: IVGGRRARPHAWPFMVSLQLRGGHFCGATLIAPNFVMSAAHCVANVNVRAVRVVLGAHNLSRREPTRQVFAVQRIFENGYDPVNLLNDIVILQLNGSATINANVQVAQLPAQGRRLGNGVQCLAMGWGLLGRNRGIASVLQELNVTVVTSLCRRSNVCTLVRGRQAGVCFGDSGSPLVCNGLIHGIASFVRGGCASGLYPDAFAPVAQFVNWIDSIIQRSEDNPCPHPRDPDPASRTH
- PGP production in bronchoalveolar lavage fluid [3]: did not generate PGP
